From PMC10895674, “First-in-Class Dual EZH2-HSP90 Inhibitor Eliciting Striking Antiglioblastoma Activity In Vitro and In Vivo” (Journal of Medicinal Chemistry, 2024)

How the values were obtained:
[1] = target: HSP90a (Homo sapiens, UniProt P07900); test: In vitro Hsp90 assay (Reaction Biology Corp.); format: biochemical; settings: for IC50: 10-dose IC50 mode, 3-fold serial dilution starting at 10 μM, single experiment, '-' read as no inhibition
Method: The HSP90 inhibitory activity of the synthesized adduct was assessed by Reaction Biology Corporation Malvern, PA. (http://www.reactionbiology.com).

[2] = system: TMZ-resistant cells (Pt3R); test: Cell viability CCK8 assay; format: cell-based, human; settings: 72 h; for IC50: Homo sapiens, CCK8, read-out: IC50, cell growth inhibitory effects
Excerpt: The CCK8 reagent was purchased from TargetMOI (Wellesley Hills, MA) and used according to the manufacturer’s instruction.

[3] = target: EZH2 (Homo sapiens, UniProt Q15910); test: EZH2 inhibition assay (Reaction Biology Corp.); format: biochemical; settings: for IC50: 10-dose IC50 mode, 3-fold serial dilution starting at 10 μM, single experiment
Method: The EZH2 inhibitory ability of the synthesized adduct was assessed by Reaction Biology Corporation Malvern, PA. (http://www.reactionbiology.com).

[4] = system: Pt#3-R-induced tumor; test: In vivo anti-GBM efficacy, Pt3R xenograft; settings: intraperitoneally twice per week; TAZ 10 or 20 mg/kg; STA+TAZ 5+5, 10+10, 15+15 mg/kg
Method: In vivo anti-GBM efficacy of compound 7 was also evaluated in this study. For the in vivo study, experimental NOD.CB17-Prkdc^scid/NCrCrl mice (8-week-old) were used and Pt3R cells (1 × 10^6) in 50 μL Dulbecco’s modified Eagle’s medium (DMEM) were injected into the back of mice. After 10 days, the tumor was detectable. […] In a nutshell, the outcome of the in vivo study ascertains that the remarkable in vitro anti-GBM activity profile of dual inhibitor 7 was translated to the in vivo potential.
Animal experiments were approved by the institutional animal care and use committee of Taipei Medical University (IACUC: LAC2022-0288). Male NOD.CB17-Prkdc^scid/NCrCrl mice (8-week-old) were purchased from BioLASCO Taiwan Co., Ltd. (Taipei, Taiwan). Pt3R cells (1 × 10^6) in 50 μL of DMEM were injected into the back of mice. Experimental mice were grouped as follows (Figure 11): DMSO (n = 5), C7–10 mg/kg (n = 4), C7–20 mg/kg (n = 6), TAZ-10 mg/kg (n = 6), TAZ-20 mg/kg (n = 8), STA-5+TAZ-5 mg/kg (n = 7), STA-10+TAZ-10 mg/kg (n = 7) and STA-15+TAZ-15 mg/kg (n = 7). After 10 days, the tumor was touchable. Mice were injected intraperitoneally with DMSO (the control group) or compounds twice per week.

Sequence of EZH2 (Q15910 whole entry): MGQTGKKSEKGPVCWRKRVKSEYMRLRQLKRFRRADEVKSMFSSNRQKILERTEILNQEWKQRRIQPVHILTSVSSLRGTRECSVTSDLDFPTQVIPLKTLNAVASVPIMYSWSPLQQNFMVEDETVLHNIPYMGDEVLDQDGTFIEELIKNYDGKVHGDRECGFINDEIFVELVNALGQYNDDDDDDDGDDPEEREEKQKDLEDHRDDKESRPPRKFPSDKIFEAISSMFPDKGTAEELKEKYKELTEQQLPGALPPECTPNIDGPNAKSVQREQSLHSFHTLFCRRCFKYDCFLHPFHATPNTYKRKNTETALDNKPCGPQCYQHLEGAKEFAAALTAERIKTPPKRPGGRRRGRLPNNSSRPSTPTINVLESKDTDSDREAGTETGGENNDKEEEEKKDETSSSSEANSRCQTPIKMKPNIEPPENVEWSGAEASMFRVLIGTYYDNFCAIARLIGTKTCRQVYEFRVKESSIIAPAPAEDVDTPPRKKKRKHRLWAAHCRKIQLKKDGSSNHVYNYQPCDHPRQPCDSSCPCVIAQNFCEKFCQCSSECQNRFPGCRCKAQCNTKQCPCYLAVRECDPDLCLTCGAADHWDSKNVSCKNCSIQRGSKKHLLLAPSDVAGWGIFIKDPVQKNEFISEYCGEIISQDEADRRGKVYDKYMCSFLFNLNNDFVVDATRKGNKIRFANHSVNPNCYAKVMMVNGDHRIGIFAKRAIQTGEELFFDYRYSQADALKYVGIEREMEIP
Sequence of EZH2 (O75530 whole entry partner): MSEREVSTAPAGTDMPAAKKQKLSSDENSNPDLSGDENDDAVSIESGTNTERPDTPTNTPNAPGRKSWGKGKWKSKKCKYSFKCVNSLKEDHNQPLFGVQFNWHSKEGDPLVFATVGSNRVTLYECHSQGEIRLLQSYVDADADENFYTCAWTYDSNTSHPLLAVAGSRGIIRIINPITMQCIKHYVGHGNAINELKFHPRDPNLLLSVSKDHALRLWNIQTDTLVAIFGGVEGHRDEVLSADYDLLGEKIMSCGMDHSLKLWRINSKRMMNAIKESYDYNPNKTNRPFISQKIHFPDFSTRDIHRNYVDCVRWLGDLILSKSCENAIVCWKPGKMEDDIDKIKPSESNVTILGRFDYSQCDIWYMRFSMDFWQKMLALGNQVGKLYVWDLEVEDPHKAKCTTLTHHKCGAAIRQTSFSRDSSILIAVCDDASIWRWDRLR
Sequence of EZH2 (Q15022 whole entry partner): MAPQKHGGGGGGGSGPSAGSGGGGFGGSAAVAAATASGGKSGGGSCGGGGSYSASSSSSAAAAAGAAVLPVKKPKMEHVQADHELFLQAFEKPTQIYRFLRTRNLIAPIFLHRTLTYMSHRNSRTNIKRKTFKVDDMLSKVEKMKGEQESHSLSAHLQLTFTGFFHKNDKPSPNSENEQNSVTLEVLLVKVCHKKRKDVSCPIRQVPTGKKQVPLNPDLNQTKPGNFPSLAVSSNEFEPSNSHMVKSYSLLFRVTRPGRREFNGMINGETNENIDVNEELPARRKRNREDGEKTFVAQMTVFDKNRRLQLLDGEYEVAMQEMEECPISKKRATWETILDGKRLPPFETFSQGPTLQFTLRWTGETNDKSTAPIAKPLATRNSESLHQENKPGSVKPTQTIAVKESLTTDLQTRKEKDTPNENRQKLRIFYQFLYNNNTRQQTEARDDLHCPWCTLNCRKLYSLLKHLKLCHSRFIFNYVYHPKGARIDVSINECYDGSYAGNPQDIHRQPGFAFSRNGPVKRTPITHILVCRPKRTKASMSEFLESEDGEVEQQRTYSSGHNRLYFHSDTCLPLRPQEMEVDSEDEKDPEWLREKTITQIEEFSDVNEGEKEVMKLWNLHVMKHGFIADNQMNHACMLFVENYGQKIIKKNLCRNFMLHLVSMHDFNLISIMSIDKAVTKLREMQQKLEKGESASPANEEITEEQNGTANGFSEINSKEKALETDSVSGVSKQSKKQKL
Sequence of EZH2 (Q09028 whole entry partner): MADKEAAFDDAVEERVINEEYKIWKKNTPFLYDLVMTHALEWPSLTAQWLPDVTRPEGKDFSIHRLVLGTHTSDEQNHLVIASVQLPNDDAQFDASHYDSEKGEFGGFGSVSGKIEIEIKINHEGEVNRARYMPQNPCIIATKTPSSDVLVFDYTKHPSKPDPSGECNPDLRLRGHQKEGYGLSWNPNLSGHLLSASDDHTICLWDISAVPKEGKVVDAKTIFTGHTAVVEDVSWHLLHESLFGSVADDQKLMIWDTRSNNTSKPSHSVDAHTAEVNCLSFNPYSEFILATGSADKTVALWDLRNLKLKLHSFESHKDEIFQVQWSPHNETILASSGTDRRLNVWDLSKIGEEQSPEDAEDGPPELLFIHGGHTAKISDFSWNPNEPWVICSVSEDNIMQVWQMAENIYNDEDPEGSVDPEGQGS
Sequence of EZH2 (Q6ZN18 whole entry partner): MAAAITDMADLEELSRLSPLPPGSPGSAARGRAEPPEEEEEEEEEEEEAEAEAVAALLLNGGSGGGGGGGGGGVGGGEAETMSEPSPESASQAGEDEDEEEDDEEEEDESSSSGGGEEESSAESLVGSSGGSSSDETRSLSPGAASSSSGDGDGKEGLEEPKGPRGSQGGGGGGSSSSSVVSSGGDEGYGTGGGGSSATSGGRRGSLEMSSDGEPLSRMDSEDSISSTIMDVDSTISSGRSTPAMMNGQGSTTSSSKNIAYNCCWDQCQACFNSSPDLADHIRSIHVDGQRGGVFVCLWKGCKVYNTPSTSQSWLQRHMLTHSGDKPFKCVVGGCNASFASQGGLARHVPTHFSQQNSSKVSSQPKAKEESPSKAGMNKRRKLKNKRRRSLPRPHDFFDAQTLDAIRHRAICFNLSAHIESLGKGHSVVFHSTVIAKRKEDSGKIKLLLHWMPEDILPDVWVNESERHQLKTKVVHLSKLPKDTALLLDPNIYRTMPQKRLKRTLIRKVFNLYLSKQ

| HSP90 inhibitory potential (in words) [1] | IC50 [3] | fold more potent in inhibiting EZH2 than counterpart 1 ([3]; compound 2 vs 1) | IC50 [1] | Structure (SMILES) | cell growth inhibitory effects (in words) [2] | IC50 [2] | tumor growth [4] |
| --- | --- | --- | --- | --- | --- | --- | --- |
| – | 7.35 nM | – | 823 nM | CCN(C(=O)c1cc(C(C)C)c(O)cc1O)c1ccc(-c2cc(C(=O)NCc3c(C)cc(C)[nH]c3=O)c(C)c(N(CC)C3CCOCC3)c2)cc1 [Compound 4, N-((4,6-Dimethyl-2-oxo-1,2-dihydropyridin-3-yl)methyl)-5-(ethyl(tetrahydro-2H-pyran-4-yl)amino)-4′-(N-ethyl-2,4-dihydroxy-5-isopropylbenzamido)-4-methyl-[1,1′-biphenyl]-3-carboxamide] | – | – | – |
| – | 11.7 nM | – | > 10000 nM | CCN(c1cc(-c2ccc(N(Cc3ccccc3)C(=O)c3cc(C(C)C)c(O)cc3O)cc2)cc(C(=O)NCc2c(C)cc(C)[nH]c2=O)c1C)C1CCOCC1 [Compound 6, 4′-(N-Benzyl-2,4-dihydroxy-5-isopropylbenzamido)-N-((4,6-dimethyl-2-oxo-1,2-dihydropyridin-3-yl)methyl)-5-(ethyl(tetrahydro-2H-pyran-4-yl)amino)-4-methyl-[1,1′-biphenyl]-3-carboxamide] | – | – | – |
| – | 641 nM | – | 2840 nM | CCN(c1cc(-c2cccc(N(Cc3ccccc3)C(=O)c3cc(C(C)C)c(O)cc3O)c2)cc(C(=O)NCc2c(C)cc(C)[nH]c2=O)c1C)C1CCOCC1 [Compound 10, 3′-(N-Benzyl-2,4-dihydroxy-5-isopropylbenzamido)-N-((4,6-dimethyl-2-oxo-1,2-dihydropyridin-3-yl)methyl)-5-(ethyl(tetrahydro-2H-pyran-4-yl)amino)-4-methyl-[1,1′-biphenyl]-3-carboxamide] | unable to exert cell growth inhibitory effects | – | – |

Continued, molecule first:

| Structure (SMILES) | HSP90 inhibitory potential (in words) [1] | IC50 [3] | fold more potent in inhibiting EZH2 than counterpart 1 ([3]; compound 2 vs 1) | IC50 [1] | cell growth inhibitory effects (in words) [2] | IC50 [2] | tumor growth [4] |
| --- | --- | --- | --- | --- | --- | --- | --- |
| CCN(c1cc(-c2ccc(NC(=O)c3cc(C(C)C)c(O)cc3O)cc2)cc(C(=O)NCc2c(C)cc(C)[nH]c2=O)c1C)C1CCOCC1 [Compound 1, 4′-(2,4-Fihydroxy-5-isopropylbenzamido)-N-((4,6-dimethyl-2-oxo-1,2-dihydropyridin-3-yl)methyl)-5-(ethyl(tetrahydro-2H-pyran-4-yl)amino)-4-methyl-[1,1′-biphenyl]-3-carboxamide] | devoid of HSP90 inhibitory potential | 6.14 nM | – | – | unable to exert cell growth inhibitory effects | – | – |
| CCN(c1cc(-c2cccc(NC(=O)c3cc(C(C)C)c(O)cc3O)c2)cc(C(=O)NCc2c(C)cc(C)[nH]c2=O)c1C)C1CCOCC1 [Compound 2, 3′-(2,4-Fihydroxy-5-isopropylbenzamido)-N-((4,6-dimethyl-2-oxo-1,2-dihydropyridin-3-yl)methyl)-5-(ethyl(tetrahydro-2H-pyran-4-yl)amino)-4-methyl-[1,1′-biphenyl]-3-carboxamide] | devoid of HSP90 inhibitory potential | 2.06 nM | 3 fold | – | unable to exert cell growth inhibitory effects | – | – |
| CCN(c1cc(-c2ccc(N(C)C(=O)c3cc(C(C)C)c(O)cc3O)cc2)cc(C(=O)NCc2c(C)cc(C)[nH]c2=O)c1C)C1CCOCC1 [Compound 3, 4′-(2,4-Dihydroxy-5-isopropyl-N-methylbenzamido)-N-((4,6-dimethyl-2-oxo-1,2-dihydropyridin-3-yl)methyl)-5-(ethyl(tetrahydro-2H-pyran-4-yl)amino)-4-methyl-[1,1′-biphenyl]-3-carboxamide] | – | 7.21 nM | – | 343 nM | – | 27400 ± 1580 nM | – |
| CCCN(C(=O)c1cc(C(C)C)c(O)cc1O)c1ccc(-c2cc(C(=O)NCc3c(C)cc(C)[nH]c3=O)c(C)c(N(CC)C3CCOCC3)c2)cc1 [Compound 5, 4′-(2,4-Dihydroxy-5-isopropyl-N-propylbenzamido)-N-((4,6-dimethyl-2-oxo-1,2-dihydropyridin-3-yl)methyl)-5-(ethyl(tetrahydro-2H-pyran-4-yl)amino)-4-methyl-[1,1′-biphenyl]-3-carboxamide] | – | 21.8 nM | – | – | – | – | – |
| CCN(C(=O)c1cc(C(C)C)c(O)cc1O)c1cccc(-c2cc(C(=O)NCc3c(C)cc(C)[nH]c3=O)c(C)c(N(CC)C3CCOCC3)c2)c1 [Compound 8, N-((4,6-Dimethyl-2-oxo-1,2-dihydropyridin-3-yl)methyl)-5-(ethyl(tetrahydro-2H-pyran-4-yl)amino)-3′-(N-ethyl-2,4-dihydroxy-5-isopropylbenzamido)-4-methyl-[1,1′-biphenyl]-3-carboxamide] | – | 36.6 nM | – | 63.6 nM | – | 10800 ± 1000 nM | – |
| CCCN(C(=O)c1cc(C(C)C)c(O)cc1O)c1cccc(-c2cc(C(=O)NCc3c(C)cc(C)[nH]c3=O)c(C)c(N(CC)C3CCOCC3)c2)c1 [Compound 9, 3′-(2,4-Dihydroxy-5-isopropyl-N-propylbenzamido)-N-((4,6-dimethyl-2-oxo-1,2-dihydropyridin-3-yl)methyl)-5-(ethyl(tetrahydro-2H-pyran-4-yl)amino)-4-methyl-[1,1′-biphenyl]-3-carboxamide] | – | 40.1 nM | – | 9330 nM | unable to exert cell growth inhibitory effects | – | – |
| CCN(c1cc(-c2ccc(CN3CCOCC3)cc2)cc(C(=O)NCc2c(C)cc(C)[nH]c2=O)c1C)C1CCOCC1 [Tazemetostat, reference compound] | – | – | – | – | unable to exert cell growth inhibitory effects | – | failed to suppress tumor growth |
